# From patent publication US20060229358A1, “Pharmaceutical composition containing flavonoids” (Taipei Medical University, priority 2005, published 2006)
# What was measured:
# PDE2 = target: T1, PDE2 (Cavia porcellus, UniProt A0A286XUV5); assay: Inhibition of cyclic nucleotide PDE activity (Assay I), PDE2; type: biochemical, guinea pig; settings: mean ± S.E.M. (n); read-out: IC50 on phosphodiesterase isozyme 2
# T1 sequence (A0A286XUV5 22-936): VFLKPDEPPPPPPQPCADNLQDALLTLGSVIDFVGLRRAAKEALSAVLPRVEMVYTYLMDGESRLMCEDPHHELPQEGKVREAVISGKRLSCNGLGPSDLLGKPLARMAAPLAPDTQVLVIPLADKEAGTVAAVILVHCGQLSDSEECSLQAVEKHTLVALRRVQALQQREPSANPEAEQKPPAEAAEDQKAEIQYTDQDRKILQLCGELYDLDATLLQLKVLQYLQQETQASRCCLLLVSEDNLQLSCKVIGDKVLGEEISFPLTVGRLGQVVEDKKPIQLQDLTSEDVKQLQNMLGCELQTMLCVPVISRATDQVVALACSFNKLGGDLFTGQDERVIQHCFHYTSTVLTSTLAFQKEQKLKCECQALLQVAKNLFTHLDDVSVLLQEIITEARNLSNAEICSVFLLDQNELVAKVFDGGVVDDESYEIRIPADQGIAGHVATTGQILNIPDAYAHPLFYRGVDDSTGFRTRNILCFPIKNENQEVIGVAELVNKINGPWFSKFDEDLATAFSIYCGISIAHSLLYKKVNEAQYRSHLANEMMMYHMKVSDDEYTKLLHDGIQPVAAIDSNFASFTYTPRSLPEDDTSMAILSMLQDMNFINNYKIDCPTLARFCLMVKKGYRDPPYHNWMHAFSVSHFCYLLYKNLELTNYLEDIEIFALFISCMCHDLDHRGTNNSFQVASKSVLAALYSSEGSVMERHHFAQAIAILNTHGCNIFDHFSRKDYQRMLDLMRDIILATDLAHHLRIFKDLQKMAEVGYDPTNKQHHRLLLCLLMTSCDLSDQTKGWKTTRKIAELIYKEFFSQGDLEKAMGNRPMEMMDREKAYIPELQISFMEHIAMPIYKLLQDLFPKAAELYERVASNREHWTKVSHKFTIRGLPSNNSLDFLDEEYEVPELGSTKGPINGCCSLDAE
# Procedure: (§1) Under a protocol approved by the Animal Care and Use Committee of Taipei Medical University, five male guinea pigs (Hartley), weighing 500-600 g, were sacrificed. The lungs (15 g) or hearts (4 g) taken therefrom were chopped into small pieces and homogenized with a glass/teflon homogenizer (Glas-Col, Terre Haute, Ind., USA) in 10 volumes of cold medium (pH 6.5) containing 20 mM Bis-Tris, 2 mM benzamidine, 2 mM EDTA, 50 mM sodium chloride, 0.1 mM phenylmethanesulfonyl fluoride (PMSF), and 1 mM dithiothreitol. At 4° C., the homogenate was centrifuged at 170 g for 15 min, and the supernatant thereof was then re-centrifuged at 40,000 g for 30 min. […] The column was washed with two bed volumes of homogenate buffer to remove unbound material, where the resin beads therein will bind with proteins, such as PDE proteins. Proteins bound to the Q-sepharose beads were eluted with various concentrations (0.23, 0.34, 0.44, 0.69, and 1.00 M) of NaCl dissolved in homogenate buffer (for each concentration, 40-50 mL elution buffer were applied) at a flow rate of 30 ml/h. Fractions (3 ml each) were collected, and ethylene glycol (EG) was added thereto until a final concentration of 30% (v/v). And then the samples were frozen at −70° C.
# (§2) The activities of PDE1-5 in the homogenate were measured with a two-step procedure according to the method of Thompson and Appleman, using cAMP with [^3H]-cAMP or cGMP with [^3 H]-cGMP as substrates. The PDE enzyme prepared (25 μl) with 10 μl inhibitor or the solvents therefor was incubated for 30 min at 37° C. in a total assay buffer, where the final volume of the assay is amounted to 100 μl. In accordance with the features of the PDE isozymes, the assay buffer contains 50 mM Tris/HCl (pH 7.4), 3 mM MgCl2, 1 mM dithiothreitol, and 0.05% BSA, and optionally contains 1 uM cAMP with 0.2 μCi [^3H]-cAMP as a substrate alone or in the presence of 0.1 unit calmodulin with 10 μM CaCl2, or 5 μM cGMP, and 1 μM cGMP with 0.2 μCi [^3H]-cGMP as another substrate alone or in the presence of 0.1 unit calmodulin with 10 μM CaCl2.
# (§3) The PDE enzyme and the inhibitors (or their solvent) therefor were mixed and incubated on ice for 30 min previously, and then mixed with the assay buffer. The assay was initiated by transferring the mixture to a water bath at 37° C. Following the other 30 min incubation, the reaction was stopped by transferring the reaction vessel to a bath of boiling water for 3 min. After cooling on ice, 20 μl of the 1 mg/ml of Crotalus atrox venom was added to the reaction mixture, and the mixture was incubated at 37° C. for 10 min. The uncatalyzed substrates, such as cAMP, [^3H]-cAMP, cGMP, or [^3H]-cGMP were removed by the addition of 500 μl of a 1-in-1 Tris-HCl (40 mM) buffer suspension of Dowex resin (1×8-200) with incubation on ice for 30 min, since the bindings of the cyclic nucleotides and the resin. Each tube was then centrifuged for 2 min at 6000 rpm, and 100 μl of the supernatant was removed and counted by a β-counter for calculating the enzyme (PDEs) activity.
# (§4) The IC50 values of flavonoids and various reference drugs were calculated using non-linear regression analysis by the software SigmaPlot 7.0 (Sigma Chemical, St. Louis Mo., USA). All values are shown as the mean±S.E.M. Differences among values, which are equal or greater to three groups, were statistically calculated by one-way analysis of variance (ANOVA), and then determined by the least significant difference (LSD). The difference between two values, however, was determined by use of Student's unpaired t-test. Differences were considered statistically significant if the P-value was less than 0.05.
# PDE4H (HARBS) = settings: references [24-26]; cited from earlier work
# PDE1 = assay: Inhibition of cyclic nucleotide PDE activity (Assay I), PDE1; type: biochemical, guinea pig; settings: mean ± S.E.M. (n); read-out: IC50 on phosphodiesterase isozyme 1
# Procedure: Under a protocol approved by the Animal Care and Use Committee of Taipei Medical University, five male guinea pigs (Hartley), weighing 500-600 g, were sacrificed. The lungs (15 g) or hearts (4 g) taken therefrom were chopped into small pieces and homogenized with a glass/teflon homogenizer (Glas-Col, Terre Haute, Ind., USA) in 10 volumes of cold medium (pH 6.5) containing 20 mM Bis-Tris, 2 mM benzamidine, 2 mM EDTA, 50 mM sodium chloride, 0.1 mM phenylmethanesulfonyl fluoride (PMSF), and 1 mM dithiothreitol. At 4° C., the homogenate was centrifuged at 170 g for 15 min, and the supernatant thereof was then re-centrifuged at 40,000 g for 30 min. The final supernatant fraction was filtered through the 0.22 μm filter and applied to a Q-sepharose fast flow column (2.2×28 cm), which is pre-washed and pre-equilibrated in homogenization buffer. The column was washed with two bed volumes of homogenate buffer to remove unbound material, where the resin beads therein will bind with proteins, such as PDE proteins. Proteins bound to the Q-sepharose beads were eluted with various concentrations (0.23, 0.34, 0.44, 0.69, and 1.00 M) of NaCl dissolved in homogenate buffer (for each concentration, 40-50 mL elution buffer were applied) at a flow rate of 30 ml/h. Fractions (3 ml each) were collected, and ethylene glycol (EG) was added thereto until a final concentration of 30% (v/v). And then the samples were frozen at −70° C. Under these conditions, the enzyme activity was stable for at least 3 months.
# In order to eliminate possible contamination of PDE5 by PDE1, the above-collected fractions with enzyme activity was further purified on a calmodulin-agarose column. The column (1.6 cm×4 cm) was pre-equilibrated by a buffer A, which contains 20 mM Bis-tris, 1 mM dithiothreitol, 2 mM benzamidine, 50 mM NaCl, 3 mMMgCl2, 0.1 mM CaCl2, and 0.1 mM PMSF, pH 6.5. The sample (the mixture of PDE5 and PDE1), being purified by the above-mentioned column, with the CaCl2 concentration thereof adjusted to at least 2 mM previously, was loaded and allowed to be absorbed on the gel for 30 min. Then, the PDE isozymes were eluted by stepwise elution using 20 ml of buffer A with 1 M NaCl followed by 20 ml of buffer A with 1 M NaCl and with 1 mM EGTA. PDE5 was collected first followed by PDE1.
# as §2, with “CaCl2. In assay of enzyme inhibition, the assay mixture contained with the inhibitors at various concentrations of flavonoids in the Table 1 or the selective PDE1-5 inhibitors as reference drugs. For example, the selective PDE1-5 inhibitors are vinpocetin [30], EHNA [31], milrinone, Ro 20-1724 [33], and zaprinast, respectively.” for “CaCl2.”
# The PDE enzyme and the inhibitors (or their solvent) therefor were mixed and incubated on ice for 30 min previously, and then mixed with the assay buffer. The assay was initiated by transferring the mixture to a water bath at 37° C. Following the other 30 min incubation, the reaction was stopped by transferring the reaction vessel to a bath of boiling water for 3 min. After cooling on ice, 20 μl of the 1 mg/ml of Crotalus atrox venom was added to the reaction mixture, and the mixture was incubated at 37° C. for 10 min. […]
# PDE3 = assay: Inhibition of cyclic nucleotide PDE activity (Assay I), PDE3; type: biochemical, guinea pig; settings: mean ± S.E.M. (n); read-out: IC50 on phosphodiesterase isozyme 3
# Procedure: as §1, §2, §3, §4
# [1] = target: T2, high affinity rolipram binding sites (HARBS, PDE4H); assay: Binding to particulate HARBS of whole brain, displacement of [3H]-rolipram (Assay II); parameters: species or system guinea pig; settings: 2 nM [3H]-rolipram, guinea pig whole brain particulates, FIG. 2; read-out: IC50 for displacement of [3H]-rolipram from HARBS
# T2 construct: IC50 for displacement of [3H]-rolipram from HARBS; other: 300 μM, guinea pig, preliminary experimental data; other: guinea pig whole brain particulates; over 300 μM not available due
# Procedure: The binding experiments are carried on basis of the methods of Schneider et al. and Zhao et al. with a small modification. Under a protocol approved by the Animal Care and Use Committee of Taipei Medical University, five male guinea pigs (Hartley), weighing 500-600 g, were anesthetized. The whole brains taken therefrom were homogenized with in 10 volumes of cold medium (pH 6.5) containing 20 mM Bis-Tris, 2 mM benzamidine, 2 mM EDTA, 50 mM sodium chloride, 0.1 mM phenylmethanesulfonyl fluoride (PMSF), and 1 mM dithiothreitol. At 4° C., the homogenate was centrifuged at 170 g for 15 min for removing blood vessels and connective tissues, and the supernatant thereof was then re-centrifuged at 40,000 g for 30 min for separating the particulates from the cytosol of cells.
# After incubation, the reaction was stopped by transferring the reaction vessel to a bath of crashed ice. Then the reaction mixture was filtered through a punched glass fiber filter (Whatman GF/B) placed in a mini funnel, which was adopted to a 1.5 ml of Eppendorff's tube for collecting the filtrate in the mini centrifuge at 1000 rpm for 10 seconds. By the same way (centrifugation), it is further washed with 0.3 ml reaction buffer each for three times. The Whatman GF/B filter was mixed with 2 ml of cocktail and counted by the β-scintillation counter (Backman, Fullerton, Calif., USA) for counting the radioactivity thereof.
# PDE4 = tested on: T3, PDE4; assay: Inhibition of cyclic nucleotide PDE activity (Assay I), PDE4, incl. Lineweaver-Burk analysis; type: biochemical, guinea pig; settings: mean ± S.E.M. (n); read-out: IC50 on phosphodiesterase isozyme 4
# T3 construct: IC50 on phosphodiesterase isozyme 4; other: mean ± S.E.M. (n)
# Procedure: as §1, §2, §3
# The dissociation constant of inhibitor binding (Ki) value was determined from the equation of apparent Km as a function of the inhibitor concentration (insert in A and B, respectively). The slope of the equation is equal to the value of […] (where KM is Michaelis constant). The amounts of the total proteins are calculated based on the analytical method reported by Bradford. In FIGS. 1A and 1B, all enzyme activities are shown as nmole of substrate per mg of proteins per minute (nmole/mg/min) hydrolyzed.
# The IC50 values of flavonoids and various reference drugs were calculated using non-linear regression analysis by the software SigmaPlot 7.0 (Sigma Chemical, St. Louis Mo., USA).
structure (smiles),measurement,setting,value
"CCCCCC[C@@H]([C@@H](C)O)n1cnc2c(N)ncnc21 (racemic) [EHNA, erythro-9-(2-hydroxy-3-nonyl)adenine, reference compound]",IC50,PDE2,4.4 ± 1 µM
"O=C(Nc1c(Cl)cncc1Cl)C(=O)c1cn(Cc2ccc(F)cc2)c2ccc(O)cc12 [AWD-12-281, N-(3,5-dichloro-pyrid-4-yl)-[1-(4-fluorobenzyl)-5-hydroxy-indole-3-yl]-gly oxylic acid amide]",PDE4H/PDE4L ratio,PDE4H (HARBS),about 11
COc1ccc(-c2cc(=O)c3c(O)cc(O)cc3o2)cc1O [Diosmetin],IC50,PDE1,14.4 ± 6.2 µM
same,IC50,PDE3,> 100 µM
"COc1ccc(C2CC(=O)c3c(OC(C)=O)cc(OC(C)=O)cc3O2)cc1OC(C)=O (stereo not shown) [HTA, hesperetin triacetate]",IC50,[1],> 300 µM
"COc1c(-c2ccc(OC(C)=O)c(OC(C)=O)c2)oc2cc(OC(C)=O)cc(OC(C)=O)c2c1=O [QMPA, Quercetin 3-O-methyl peracetate]",IC50,[1],8.7 µM
"CCCCOc1cc(CC2CNC(=O)N2)ccc1OC (stereo not shown) [Ro 20-1724, reference compound]",IC50,PDE4,11.4 ± 1.6 µM
same,IC50,[1],0.0673 µM
"Cc1[nH]c(=O)c(C#N)cc1-c1ccncc1 [milrinone, reference compound]",IC50,PDE3,2.4 ± 0.5 µM
"CCOC(=O)C1=C[C@]2(CC)CCCN3CCc4c(n1c1ccccc41)[C@@H]32 [vinpocetine, reference compound]",IC50,PDE1,123 ± 44.9 µM
